Paper PMC3454376, “Salidroside Improves Behavioral and Histological Outcomes and Reduces Apoptosis via PI3K/Akt Signaling after Experimental Traumatic Brain Injury” (PLoS ONE, 2012)

Columns and labels:
[1] = test system: mice subjected to controlled cortical impact injury; test: Rotarod motor test after CCI; format: in vivo
Procedure: All animal procedures were approved by the Animal Research Committee at Cheng Hsin General Hospital (Animal permit number CHIACUC 101–08), and all procedures complied with the Guide for the Care and Use of Laboratory Animals published by the US National Institutes of Health (NIH Publication No. 85–23, revised 1996). Animals were housed under a 12-h light/dark cycle and at constant temperature (21–25°C) and humidity (45–50%). They were allowed free access to pellet chow and water. TBI in mice was induced by a CCI injury model as previously described. Briefly, 8-week-old male C57BL/6 mice (weighing 22–25 g) were anesthetized through the use of intraperitoneal injection of sodium pentobarbital (65 mg/kg; Rhone Merieux, Harlow, UK) and placed in a stereotaxic frame. A 5 mm craniotomy was performed over the right parietal cortex, centered on the coronal suture and 0.1 mm lateral to the sagittal suture, and injury to dura was avoided. […] Body temperature was monitored throughout the surgery by a rectal probe; temperature was maintained at 37.0±0.5°C using a heated pad. […]
Three sets of experiments were performed. […] To determine the optimal dose of salidroside, a pilot study was performed using 2 different doses (20 and 50 mg/kg) administered 10 min after injury, and neurological deficits and tissue damage were evaluated as the main outcomes. […]

[2] = test system: cleaved caspase-3; test: Western blot, injured cortex; format: in vivo, mice; conditions: for decrease of cleaved caspase-3 level versus vehicle: 20 mg/kg ip 10 min after CCI, P<0.05
Procedure: Three sets of experiments were performed. The first set was to investigate the protective effects of salidroside. All animals were randomized into 1 of 3 groups (sham injury, CCI + vehicle, CCI + SALD 20). Surgery/injury, behavioral testing, and tissue analyses were performed by different individuals. Behavioral testing and tissue analyses were performed by individuals blinded to the treatment group. Salidroside (Cayman Chemical, Ann Arbor, MI, USA) dissolved in normal saline (0.25 mL) or a corresponding volume of vehicle (saline) was administered intraperitoneally 10 min following injury. Testing after injury was completed as follows: 1) behavioral testing at days 1, 4, 7, 14, 21, and 28 (n = 8–10 mice/group); 2) cresyl violet staining at day 28 (n = 9 mice/group); 3) histology, determination of brain water content, and western blot analysis at day 1 or 3 (n = 5–6 mice/group). To determine the optimal dose of salidroside, a pilot study was performed using 2 different doses (20 and 50 mg/kg) administered 10 min after injury, and neurological deficits and tissue damage were evaluated as the main outcomes. […] The second set of experiment was to assess the effect of the inhibition of PI3K/Akt with the specific PI3K inhibitor, LY294002 (Cell Signaling Technology, Danvers, MA, USA), on salidroside effects. Animals were randomized into 4 groups. Mice received either: 1) icv pretreatment of LY294002 followed by SALD 20 after CCI (S20Y group); or 2) icv pretreatment of saline (vehicle control) followed by SALD 20 after CCI (S20V group). 3) Mice were infused icv with saline and were subjected to sham injury. 4) Mice were infused icv with LY294002 and were subjected to sham injury. […] Protein concentration was determined by Bradford reagent spectrophotometrically at A595. […] The relative intensity of protein signals was normalized to the corresponding β-actin intensity and was quantified by densitometric analysis with the use of Image J software.

OC[C@H]1O[C@@H](OCCc2ccc(O)cc2)[C@H](O)[C@@H](O)[C@@H]1O [SALD, salidroside]
rotarod performance versus vehicle group ([1]; 20 mg/kg ip 10 min after CCI, whole observation period (28 days), all P<0.05): significantly better performance
rotarod outcome versus vehicle group ([1]; 50 mg/kg ip 10 min after CCI, only at days 14 and 28, P<0.05): significantly improved
decrease of cleaved caspase-3 level versus vehicle ([2]; day 1): 49.6%
decrease of cleaved caspase-3 level versus vehicle ([2]; day 3): 34.9%
reduction of cleaved caspase-3 level ([2]; 20 mg/kg ip 3 h after injury, day 1): 34.1%
